The inhibition is the relative decrease from the control value, in per cent. A word on the EC50: it is the concentration at which the effect is half-maximal.

SMILES strings stand for the structures. Several values for one entry are separate records, joined by “and”; a condition that tells them apart may be missing. Identical values can stand only once. Like-named read-outs stand apart in the source and are kept apart here.

One series relates to Jurkat leukemia cells. Description: Antiproliferation assay. It is filed as cell-based, human. Particulars: for inhibition at 50 µM / EC50: Jurkat; for inhibition at 50 µM: read-out: % inhibition at 50 µM, Jurkat; for EC50: read-out: Antiproliferative activity EC50, Jurkat; for Effect on growth of Jurkat cells: at 50 µM.
Another series relates to NB4 cells. Description: Antiproliferation assay. It is filed as cell-based, human.
A further series relates to MV4-11 cells. Description: Antiproliferation assay. It is filed as cell-based, human.
In series [1] the test system is MCF-7 (breast cancer) cells. Kind of series: Antiproliferation assay. It is filed as cell-based, human.
Series [2] deals with normal fibroblast WI-38 cells. Description: Antiproliferation assay. It is filed as cell-based, human.
Another series deals with SKNO-1 cells. Kind of series: Antiproliferation assay. It is filed as cell-based, human.
In series [3] the test system is murine c-kit+ hematopoietic stem/progenitor cells (HSPC). Description: Colony-forming assay with hematopoietic stem/progenitor cells. Format: cell-based, mouse. Particulars: even at 250 nM.
For series [4], the system named is Kasumi-1 cells. Description: Antiproliferation assay. It is filed as cell-based, human. Particulars: read-out: Antiproliferative activity EC50, Kasumi-1.
Series [5] has as its system SKNO-1 leukemia. Description: Subcutaneous xenograft mouse model of SKNO-1 leukemia. It is filed as in vivo. Particulars: i.p. 10 and 20 mg/kg/day, 10 injections in 14 days, NOD-SCID mice.
Series [6] concerns Kasumi-1 and SKNO-1 cells. Description: Antiproliferation assay, R-E leukemia cells. The following applies: more active than Dex. It is filed as cell-based, human.
The conditions of series [7]: i.p. 100 mg/kg/day, 10 injections over 14 days.
The conditions of series [8]: ref [44], [45]; cited from earlier work.
Series [9] concerns Kasumi-1 cells. Description: Combination treatment of Kasumi-1 cells, combination index. It is filed as cell-based, human. The following applies: Dex in combination with cytarabine, CI < 1 synergism, listed as Dex.
Series [10] concerns SKNO-1 leukemia. The following applies: 15 mg/kg/day i.p. injection for 4 days, ref [37], cited from earlier work.
For the next series, the system named is myeloid leukemia cells. Particulars: short course (3-7 days), high doses (20-30 mg/kg/day); ref [54]; cited from earlier work.
The mark [11] stands for this setting: Homo sapiens, NB-4, read-out: Antiproliferative activity EC50, NB4.
[12] abbreviates: Homo sapiens, MV4-11, read-out: Antiproliferative activity EC50, MV4-11.
The mark [13] stands for this setting: Homo sapiens, MCF7, read-out: Antiproliferative activity EC50, MCF-7.
Setting [14] is: Homo sapiens, WI-38, read-out: Antiproliferative activity EC50, WI-38.
Where [15] appears, read: Homo sapiens, SKNO-1, read-out: Antiproliferative activity EC50, SKNO-1.

For `CC=CC(=O)N(CC)c1ccccc1C` (mixture of isomers) [Crotamiton, crotamiton], in the series on Jurkat leukemia cells (Homo sapiens), the inhibition at 50 µM stood at 11.2% and the concentration for a half-maximal effect (EC50) was greater than 50 µM.
On to `CC(=O)c1ccc2c(c1)N(CCCN(C)C)c1ccccc1S2` [Acepromazine, acepromazine], for which, in the series on Jurkat leukemia cells (Homo sapiens), the inhibition at 50 µM is 21% and the EC50 is greater than 50 µM.
For the compound `CO[C@H]1/C=C\C=C(/C)C(=O)NC2=CC(=O)C(NCCN(C)C)=C(C[C@@H](C)C[C@H](OC)[C@H](O)[C@@H](C)/C=C(\C)[C@@H]1OC(N)=O)C2=O` [Alvespimycin, alvespimycin], the EC50 in the series with Jurkat leukemia cells (Homo sapiens) is 1.6 µM; in the series with NB4 cells (setting [11]) it was 0.055 µM; in the series on MV4-11 cells (setting [12]), 0.09 µM; in series [1] (setting [13]), 5.2 µM; in [2] (setting [14]) it was 27 µM.
With `C[C@H]1C[C@H]2[C@@H]3CCC4=CC(=O)C=C[C@]4(C)[C@@]3(F)[C@@H](O)C[C@]2(C)[C@@]1(O)C(=O)CO` [Betamethasone, betamethasone], the inhibition at 50 µM with Jurkat leukemia cells (Homo sapiens) was determined as 6.9%. In addition, the EC50 in the series on Jurkat leukemia cells (Homo sapiens) was greater than 50 µM; in the series on SKNO-1 cells (setting [15]), 0.059 µM; with NB4 cells (setting [11]), greater than 50 µM; with MV4-11 cells (setting [12]) it was greater than 50 µM; in [1] (setting [13]), greater than 50 µM; in [2] (setting [14]), greater than 50 µM. Further, the “Effect on growth of Jurkat cells” value with Jurkat leukemia cells was “did not affect growth”. In series [3], the “Effect on colony-forming ability of murine HSPC” value is given as “did not significantly affect”.
As to `CN(C)/N=N/c1[nH]cnc1C(N)=O` [Dacarbazine, dacarbazine], in the series on Jurkat leukemia cells (Homo sapiens), the EC50 is 15.2 µM.
For the compound `C[C@@H]1C[C@H]2[C@@H]3CCC4=CC(=O)C=C[C@]4(C)[C@@]3(F)[C@@H](O)C[C@]2(C)[C@@]1(O)C(=O)COP(=O)(O)O` [Dex-P, dexamethasone-21-phosphate], the EC50 in the series on Kasumi-1 cells [4] is 0.009 µM; with Jurkat leukemia cells, greater than 50 µM; in the series with SKNO-1 cells (read-out: Antiproliferative activity EC50, SKNO-1, SKNO-1), 0.017 µM; in the series with NB4 cells (read-out: Antiproliferative activity EC50, NB4, NB4) it was greater than 50 µM; in the series with MV4-11 cells (read-out: Antiproliferative activity EC50, MV4-11, MV4-11), greater than 50 µM; in series [1] (read-out: Antiproliferative activity EC50, MCF-7, MCF-7), greater than 50 µM. In addition, the EC50 in series [2] (read-out: Antiproliferative activity EC50, WI-38, WI-38) is greater than 50 µM. Moreover, the “Effect on colony-forming ability of murine HSPC” value in series [3] is “did not significantly affect”. Further, the “Survival in SKNO-1 xenograft” value in the series with SKNO-1 leukemia [5] was “prolonged survivals”. Moreover, in the series on SKNO-1 leukemia [5], the “Tumor growth in SKNO-1 xenograft” value was “significant tumor growth inhibition”. Moreover, in series [6], the “Activity compared to parent compound Dex (fold more active)” value is recorded as ~ 2 fold. The Toxicity to mice result in series [7] is on record as “without overt toxicities”. Also, in [8], the t1/2 in humans is reported as 4.7 h.
In the case of `C[C@@H]1C[C@H]2[C@@H]3CCC4=CC(=O)C=C[C@]4(C)[C@@]3(F)[C@@H](O)C[C@]2(C)[C@@]1(O)C(=O)CO` [Dexamethasone, dexamethasone], the half-maximal effective concentration (EC50) in the series with Jurkat leukemia cells (Homo sapiens) was greater than 50 µM; in the series on SKNO-1 cells (setting [15]), 0.029 µM; in the series with NB4 cells (setting [11]) it was greater than 50 µM; in the series with MV4-11 cells (setting [12]), greater than 50 µM; in series [1] (setting [13]) it was greater than 50 µM; in series [2] (setting [14]), greater than 50 µM. Also, the “Combination index (CI)” value in the series on Kasumi-1 cells [9] is 0.13-0.75 and 0.13 to 0.75. Moreover, the results for the “In vivo activity (tumor burden) in mouse model of SKNO-1 leukemia” value with SKNO-1 leukemia [10] and with SKNO-1 leukemia [10] (listed as Dex) were “did not reduce in vivo tumor burden” and “no in vivo activity”, respectively.
Take `Cc1c(Nc2ncccc2C(=O)O)cccc1C(F)(F)F` [Fluninxin]: in the series with Kasumi-1 cells [4], the EC50 was found to be 14.7 µM. Besides, in the series with Jurkat leukemia cells, the “Effect on growth of Jurkat cells” value was “inactive” and the EC50 is roughly 50 µM.
With `C[C@]12CCC(=O)C=C1CC[C@@H]1[C@@H]2[C@@H](O)C[C@@]2(C)[C@H]1CC[C@]2(O)C(=O)CO` [Hydrocortisone, hydrocortisone], the EC50 is greater than 50 µM in the series on Jurkat leukemia cells (Homo sapiens) and 0.41 µM with SKNO-1 cells (setting [15]).
Consider `COc1ccc2cc(CCC(C)=O)ccc2c1` [Nabumetone], for which the concentration giving a half-maximal response (EC50) in the series on Kasumi-1 cells [4] is 18.5 µM. Further, in the series with Jurkat leukemia cells (Homo sapiens), the inhibition at 50 µM is -3.5% and the EC50 was greater than 50 µM. Further, in the series on Jurkat leukemia cells, the “Effect on growth of Jurkat cells” value is “inactive”.
`C[C@]12C=CC(=O)C=C1CC[C@@H]1[C@@H]2[C@@H](O)C[C@@]2(C)[C@H]1CC[C@]2(O)C(=O)CO` [Prednisolone, prednisolone]: the EC50 in the series on Jurkat leukemia cells (Homo sapiens) was greater than 50 µM; in the series with SKNO-1 cells (setting [15]) it was 0.15 µM.
Consider `CCCNCC(O)COc1ccccc1C(=O)CCc1ccccc1` (centres unmarked) [Propafenone, propafenone], for which, in the series on Jurkat leukemia cells (Homo sapiens), the inhibition at 50 µM stood at 2.5% and the EC50 was greater than 50 µM.
Consider `COc1cc2ccc(=O)oc2cc1O` [Scopoletin, scopoletin], for which, in the series on Jurkat leukemia cells (Homo sapiens), the inhibition at 50 µM came out at 29.4% and the EC50 is greater than 50 µM.
Take `C=CCNC1=C2C[C@@H](C)C[C@H](OC)[C@H](O)[C@@H](C)/C=C(\C)[C@H](OC(N)=O)[C@@H](OC)/C=C\C=C(/C)C(=O)NC(=CC1=O)C2=O` [Tanespimycin, tanespimycin]: the 50% effective concentration (EC50) with Jurkat leukemia cells (Homo sapiens) was roughly 50 µM; in the series with NB4 cells (setting [11]), 0.42 µM; in the series on MV4-11 cells (setting [12]), 0.52 µM; in [1] (setting [13]), greater than 50 µM; in series [2] (setting [14]), greater than 50 µM.
In the case of `C[C@H]1C[C@@H]2[C@H]([C@@H](O)C[C@@]3(C)[C@H]2CC[C@]3(O)C(=O)CO)[C@@]2(C)C=CC(=O)C=C12` [methylprednisolone], in the series with myeloid leukemia cells, the “Differentiation of myeloid leukemia cells in children with AML” value is “induce differentiation of myeloid leukemia cells”.

The values are drawn from paper PMC5928880 (Theranostics, 2018).
